This assay addresses T1, A2B adenosine receptor (Homo sapiens, UniProt P29275).
T1 construct: Aliquots of neutrophil membranes (0.2–0.4 mg proteins) were incubated in a final volume of 250 μl T2 buffer; from tissue; host or cells: neutrophils from healthy volunteers and systemic sclerosis patients (membranes)
T1 sequence (P29275 1-332): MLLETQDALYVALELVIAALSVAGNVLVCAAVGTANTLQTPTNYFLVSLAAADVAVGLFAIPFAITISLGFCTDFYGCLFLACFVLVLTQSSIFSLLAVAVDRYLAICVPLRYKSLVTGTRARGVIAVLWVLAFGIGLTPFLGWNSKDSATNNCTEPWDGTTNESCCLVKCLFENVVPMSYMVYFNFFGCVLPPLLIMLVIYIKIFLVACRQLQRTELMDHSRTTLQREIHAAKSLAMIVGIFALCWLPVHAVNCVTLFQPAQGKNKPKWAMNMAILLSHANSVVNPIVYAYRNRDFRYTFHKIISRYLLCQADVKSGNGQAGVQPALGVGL
Description: [3H]NECA binding to A2B AR in neutrophil membranes (plus CPA and SCH58261). The note with it: read-out: [^3H]NECA Ki; control neutrophil membranes; competition with 20 nmol/l [3H]NECA plus 50 nmol/l CPA and 100 nmol/l SCH58261; mean ± SEM of three experiments; Cheng and Prusoff. Here is the method: For membrane preparation, cells were washed twice with 10 mmol/l Tris-HCl buffer, pH 7.4, containing 10 mmol/l MgCl2, in the presence of protease inhibitors (200 μg/ml bacitracine, 160 μg/ml benzamidine, 20 μg/ml trypsin inhibitor [T1]) and centrifuged at 48,000 g for 15 min at 4°C. Pellets were diluted in 20 volumes of T1 buffer, treated with ADA (2 IU/ml) for 60 min at 37°C to remove endogenous adenosine, and washed twice with 50 mmol/l Tris-HCl buffer, pH 7.4, containing 10 mmol/l MgCl2 (T2).
Aliquots of neutrophil membranes (0.2–0.4 mg proteins) were incubated in a final volume of 250 μl T2 buffer. […] After 90 min incubation at 0°C, the reaction was terminated either by vacuum filtration through Whatman GF/C glass fibre filters, accompanied by three washes with ice-cold T2 buffer (4 ml), or by centrifugation at 2900 g for 15 min at 4°C. A2B AR specificity was evaluated through competition experiments, using different AR ligands.

SMILES strings stand for the structures. A value given as a limit tells only on which side of the number the result lay.

In the case of `CCCn1c(=O)c2[nH]c(-c3ccc(OCC(=O)Nc4ccc(C(C)=O)cc4)cc3)nc2n(CCC)c1=O` [MRS1706], the Ki was 5 ± 0.3 nM.

Consider `Nc1nc(Cl)nc2c1ncn2[C@@H]1O[C@H](CO)[C@@H](O)[C@H]1O` [2 Cl-adenosine], for which the inhibitory constant (Ki) was 954 ± 600 nM.

`O=C(Cc1ccccc1)Nc1nc2ccc(Cl)cc2c2nc(-c3ccco3)nn12` [MRS1220]: the Ki was above 10000 nM.

The Ki is the dissociation constant of the complex between target and ligand, obtained from inhibition or displacement.
